Measurements published in publication PMC4893612 (Scientific Reports, 2016).
Read-outs that look alike come from different tables or passages of the source.

What was measured:
USP14 = USP14 (Homo sapiens, UniProt P54578); assay: SPR binding to recombinant USP14, NTA chip
Text: A BIACORE T200 was used for characterization of the interaction between compounds and USP14, UCHL5 and 26S proteasome. The standard BIACORE protocols were used for NTA chip (Ni/His-tag immobilization) and CM7 chip for compound interaction studies with slight modification described below. The x6 his-tagged USP14 and UCHL5 proteins were coupled to a Series S NTA BIACORE sensor chip in the BIACORE T200 using the his-tags for adherence of the proteins to the surface and an amine coupling procedure for covalent attachment to the chip surface. NTA chip was cleaned using three 500 μM EDTA injections followed by an injection of 500 μM Ni^2+ and activation of the chip surface with EDC/NHS injection according to BIACORE standard methods. Each chip has four separate areas, which were handled separately during the immobilization procedure. Area 1 was used as blank reference surface, area 2–4 was coupled with investigated recombinant proteins or complexes. Proteins were diluted in running buffer (10 mM HEPES, 150 mM NaCl, 0,005% Tween 20) to typically 10 μg/ml before injection(1 mL) over the prepared surfaces. […] The immobilization procedure was followed by injections of compound concentration series of VLX1570. Concentration series were set up with ×3 and ×2 dilution series ending with the highest concentration 200 μM for the consecutive measurements of changes of refractive index. Compounds were kept in stock concentrations of 10 mM in DMSO and diluted in running buffer down to the test concentration. Rmax and KD were calculated using Langmuir binding isotherms as provided in the Biacore software.

OPM-2 = assay: MTT antiproliferative assay, OPM-2; assay type: cell-based; conditions: Homo sapiens, 72 hours
Description: (§1) Cell viability was monitored by the MTT (3-(4,5-dimethylthiazol-2-yl)-2,5-diphenyltetrazolium bromide) assay. For the MTT assay, cells were suspended at 5 × 10^5 cells/ml, and 100 μl aliquots were dispended into 96-well microtiter plates and exposed to drugs as described using DMSO control. At the end of incubations, 10 μl of a stock solution of 5 mg/ml MTT (3-(4,5-dimethylthiazol-2-yl)-2,5-diphenyltetrazolium bromide), was added into each well, and the plates were incubated 4 hours at 37 °C. Formazan crystals were dissolved with 100 μl of 10% SDS/10 mM HCl solution overnight at 37 °C. Since MTT assays are affected by mitochondrial activity, and since OXPHOS is affected by VLX1570 (unpublished observation), we used the acid phosphatase method[49] to determine cell viability in some experiments. After washing twice with PBS, cells were lysed in 100 μl of 0.1 M sodium acetate, 0,1% Triton X-100, p-nitrophenylphosphate (Pierce Biotechnology Inc, Rockford, IL) and incubated for 90 min at 37 °C. At the end of the incubation, 10 μl NaOH was added to each well and A405 was determined.

OPM-2-BZ^R = assay: MTT antiproliferative assay, OPM-2-BZR; assay type: cell-based; conditions: Homo sapiens, OPM-2-BZ^R (bortezomib resistant), 72 hours
Description: as §1

[1] = test system: 26S proteasome and immunoproteasome; assay: Proteasome and immunoproteasome proteolytic activity in OPM-2 cells; assay type: cell-based, human; conditions: 0.5 μM, 3 hours
MM cells = assay: Immunoblotting of polyubiquitinated proteins in MM cells; assay type: cell-based, human; conditions: 0.5 μM, 6 or 18 h
Description: (§2) Cell extract proteins were resolved by Tris-Acetate PAGE gels (Invitrogen, Carlsbad, CA) and transferred onto a polyvinylidene difluoride (PVDF) membrane for western blotting. For Ub-VS labeling, we lysed cell pellets from control or treated cells with buffer (50 mM HEPES pH 7.4, 250 mM sucrose, 10 mM MgCl2, 2 mM ATP, 1 mM DTT and 1%NP-40) on ice for 30 min and removed debris by centrifugation. We labeled 25 μg of protein with 1 μM Ub-VS for 30 min at 37 °C. We resolved samples by SDS-PAGE and performed immunoblotting. For HA-Ub-VS labeling, we pretreated purified 19S (5 nM) with DMSO or 2.5, 5, 10, 15 or 25μM 1570 for 10 min at room temperature, which followed with labeling with 1 μM HA-Ub-VS for 30 min at 37 °C and immunoblotting.

proteasome DUB activity = test system: proteasome DUB activity; design: method as in PMID 25854145; conditions: competitive inhibitor; read-out: IC50, inhibition of proteasome DUB activity in vitro; cited from earlier work
OPM-Bz^R cells = assay: 3H-VLX1570 cellular uptake, OPM-Bz^R versus parental cells; conditions: OPM-Bz^R cells compared to parental cells
UCHL5 = biological target: T1, UCHL5 (Homo sapiens, UniProt Q9Y5K5); assay: Ub-VS labeling of lysates of exposed OPM-2 cells, UCHL5; assay type: cell-based; design: endogenous in cells; host or cells: OPM-2 multiple myeloma cells; conditions: 0.5 μM, 3 hours
T1 sequence (Q9Y5K5 1-329): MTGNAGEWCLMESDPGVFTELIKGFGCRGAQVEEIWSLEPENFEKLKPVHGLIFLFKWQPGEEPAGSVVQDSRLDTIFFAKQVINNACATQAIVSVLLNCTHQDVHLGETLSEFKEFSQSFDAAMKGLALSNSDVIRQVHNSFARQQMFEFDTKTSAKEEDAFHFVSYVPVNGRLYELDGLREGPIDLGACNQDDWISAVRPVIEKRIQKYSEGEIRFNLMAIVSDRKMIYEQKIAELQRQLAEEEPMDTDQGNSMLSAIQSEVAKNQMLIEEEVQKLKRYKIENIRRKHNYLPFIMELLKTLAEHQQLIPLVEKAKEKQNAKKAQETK
Description: as §2

Chain of USP14 (P54578 whole entry): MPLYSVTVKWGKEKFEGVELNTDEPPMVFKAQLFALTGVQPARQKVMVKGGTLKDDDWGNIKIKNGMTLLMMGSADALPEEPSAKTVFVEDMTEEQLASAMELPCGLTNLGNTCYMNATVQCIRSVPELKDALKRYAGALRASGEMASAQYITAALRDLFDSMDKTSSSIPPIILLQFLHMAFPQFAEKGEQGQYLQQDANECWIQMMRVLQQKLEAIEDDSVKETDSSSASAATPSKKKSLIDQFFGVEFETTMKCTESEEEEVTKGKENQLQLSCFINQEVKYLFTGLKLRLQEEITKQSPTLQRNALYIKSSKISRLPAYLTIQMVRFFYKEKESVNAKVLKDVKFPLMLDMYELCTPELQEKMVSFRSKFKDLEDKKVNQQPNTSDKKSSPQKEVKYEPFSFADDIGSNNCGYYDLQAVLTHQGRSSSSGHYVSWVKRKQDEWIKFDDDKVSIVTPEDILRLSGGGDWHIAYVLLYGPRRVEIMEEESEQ

What does the source list for `C=CC(=O)N1CC/C(=C\c2ccc(F)c([N+](=O)[O-])c2)C(=O)/C(=C/c2ccc(F)c([N+](=O)[O-])c2)C1` [VLX1570]?
Kd (USP14; NTA chip, protein from Karolinska Institute Protein Science Facility, read-out: USP14(K) KD): 18 µM; Kd (USP14; NTA chip, protein from ProSpec, read-out: USP14(P) KD): 8.1 µM; Kd (USP14; NTA chip, protein from Ubiquigent, read-out: USP14(U) KD): 1.5 µM; Kd (USP14; two different sources of recombinant protein, Ni2+-histidine immobilisation, read-out: dissociation constant (KD) for binding to recombinant USP14): 1.5 to 18 µM; IC50 (OPM-2): 0.126 ± 0.003 µM; IC50 (OPM-2-BZ^R): 0.191 ± 0.001 µM; chymotryptic, tryptic and caspase-like activity of 26S proteasome and chymotryptic activity of immunoproteasome [1]: no change; accumulation of polyubiquitinated proteins (MM cells): polyubiquitinated proteins accumulated; IC50 (proteasome DUB activity): ~10 µM; cellular uptake of radiolabeled drug (OPM-Bz^R cells): decreased uptake; UCHL5 inhibition in exposed cells (UCHL5): weak in comparison
